Experimental data taken from patent publication US11981658B2, “Substituted aminopyridine compounds as EGFR inhibitors” (YUHAN CORPORATION, priority 2021, dated 2024).
Read-outs that look alike come from different tables or passages of the source.

Legend:
EGFR Del19/T790M/C797S = EGFR Del19/T790M/C797S (Homo sapiens, UniProt P00533, C797S/DEL746-750/T790M); test: Biochemical EGFR kinase inhibition assay (Lance Ultra TR-FRET), triple mutant del19/T790M/C797S
Procedure, shortened: (§1)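 Kinase activity is measured by TR-FRET phosphopeptide detection. Compounds span 0.003 μM to 10 μM; the 1 h reaction at room temperature is quenched with EDTA, then labelled antibody (2 nM) is incubated 60 min before reading.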

EGFR L858R/C797S = EGFR L858R/C797S (Homo sapiens, UniProt P00533, C797S/L858R); test: Biochemical EGFR kinase inhibition assay (Lance Ultra TR-FRET), double mutant L858R/C797S
EGFR L858R/C797S, sequence (P00533 25-1210 C797S/L858R): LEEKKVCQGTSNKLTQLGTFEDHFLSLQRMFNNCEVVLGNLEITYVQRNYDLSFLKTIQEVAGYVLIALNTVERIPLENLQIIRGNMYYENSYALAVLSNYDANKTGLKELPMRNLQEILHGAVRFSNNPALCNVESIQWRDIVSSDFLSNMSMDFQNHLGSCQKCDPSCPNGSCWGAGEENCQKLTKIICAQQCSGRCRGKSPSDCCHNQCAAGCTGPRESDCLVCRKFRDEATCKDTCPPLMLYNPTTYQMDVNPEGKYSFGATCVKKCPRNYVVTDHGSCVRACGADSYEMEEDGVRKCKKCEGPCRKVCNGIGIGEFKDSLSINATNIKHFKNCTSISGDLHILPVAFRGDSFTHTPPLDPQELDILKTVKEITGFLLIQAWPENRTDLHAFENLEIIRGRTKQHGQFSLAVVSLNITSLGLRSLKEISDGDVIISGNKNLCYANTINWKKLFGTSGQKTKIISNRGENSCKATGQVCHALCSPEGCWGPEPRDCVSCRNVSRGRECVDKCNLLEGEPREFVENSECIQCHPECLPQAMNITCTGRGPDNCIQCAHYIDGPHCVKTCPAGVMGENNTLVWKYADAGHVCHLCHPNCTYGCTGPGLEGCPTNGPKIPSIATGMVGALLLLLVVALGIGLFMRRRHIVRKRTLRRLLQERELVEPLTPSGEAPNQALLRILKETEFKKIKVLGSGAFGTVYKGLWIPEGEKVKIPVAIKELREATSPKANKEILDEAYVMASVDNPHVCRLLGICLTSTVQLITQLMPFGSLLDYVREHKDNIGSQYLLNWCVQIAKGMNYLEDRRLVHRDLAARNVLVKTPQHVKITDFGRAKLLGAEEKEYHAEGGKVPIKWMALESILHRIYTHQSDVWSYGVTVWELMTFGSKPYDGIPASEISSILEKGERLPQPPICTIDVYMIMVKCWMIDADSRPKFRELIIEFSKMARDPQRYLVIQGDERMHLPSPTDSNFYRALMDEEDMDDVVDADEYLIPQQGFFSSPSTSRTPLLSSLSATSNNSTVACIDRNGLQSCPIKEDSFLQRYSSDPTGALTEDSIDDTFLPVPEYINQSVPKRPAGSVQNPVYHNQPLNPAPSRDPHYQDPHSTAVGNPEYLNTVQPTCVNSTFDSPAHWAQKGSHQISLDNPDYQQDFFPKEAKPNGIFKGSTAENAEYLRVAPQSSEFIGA
Procedure, shortened: as §1

EGFR Del19/C797S = EGFR Del19/C797S (Homo sapiens, UniProt P00533, C797S/DEL746-750); test: Biochemical EGFR kinase inhibition assay (Lance Ultra TR-FRET), double mutant del19/C797S
Procedure, shortened: as §1

EGFR wildtype (WT) = EGFR wildtype (WT) (Homo sapiens, UniProt P00533); test: Biochemical EGFR kinase inhibition assay (Lance Ultra TR-FRET), wildtype
EGFR wildtype (WT), sequence (P00533 25-1210): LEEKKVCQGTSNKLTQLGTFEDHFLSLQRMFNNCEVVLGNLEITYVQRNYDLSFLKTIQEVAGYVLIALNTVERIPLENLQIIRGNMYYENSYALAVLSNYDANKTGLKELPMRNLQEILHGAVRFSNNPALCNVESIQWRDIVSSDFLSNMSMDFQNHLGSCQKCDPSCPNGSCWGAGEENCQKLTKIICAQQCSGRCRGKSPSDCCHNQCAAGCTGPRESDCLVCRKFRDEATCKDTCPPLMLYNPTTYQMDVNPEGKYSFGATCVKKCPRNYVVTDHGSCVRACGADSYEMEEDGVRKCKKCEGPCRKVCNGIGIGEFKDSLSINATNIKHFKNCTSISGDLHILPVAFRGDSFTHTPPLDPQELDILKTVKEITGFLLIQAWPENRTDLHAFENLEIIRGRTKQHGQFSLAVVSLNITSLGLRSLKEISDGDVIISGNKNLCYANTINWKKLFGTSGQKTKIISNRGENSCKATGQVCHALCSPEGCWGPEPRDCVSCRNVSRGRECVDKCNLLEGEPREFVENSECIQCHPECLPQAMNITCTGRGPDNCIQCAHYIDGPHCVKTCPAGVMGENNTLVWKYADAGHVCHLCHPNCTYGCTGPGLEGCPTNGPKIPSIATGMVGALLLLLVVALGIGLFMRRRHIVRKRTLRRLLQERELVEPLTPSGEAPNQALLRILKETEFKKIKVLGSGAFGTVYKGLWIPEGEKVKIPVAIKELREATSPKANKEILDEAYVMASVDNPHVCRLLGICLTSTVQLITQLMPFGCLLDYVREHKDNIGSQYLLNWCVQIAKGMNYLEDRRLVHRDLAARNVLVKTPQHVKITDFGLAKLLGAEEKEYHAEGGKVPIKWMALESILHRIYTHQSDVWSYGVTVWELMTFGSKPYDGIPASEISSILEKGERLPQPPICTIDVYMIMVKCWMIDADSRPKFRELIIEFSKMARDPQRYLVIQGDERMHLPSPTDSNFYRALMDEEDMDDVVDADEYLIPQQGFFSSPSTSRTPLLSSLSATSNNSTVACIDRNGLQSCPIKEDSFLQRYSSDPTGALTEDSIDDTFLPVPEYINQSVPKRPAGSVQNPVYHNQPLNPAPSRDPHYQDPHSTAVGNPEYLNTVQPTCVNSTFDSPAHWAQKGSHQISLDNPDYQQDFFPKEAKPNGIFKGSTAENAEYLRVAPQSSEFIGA
Procedure, shortened: as §1

EGFR L858R/T790M/C797S = EGFR L858R/T790M/C797S (Homo sapiens, UniProt P00533, C797S/L858R/T790M); test: Biochemical EGFR kinase inhibition assay (Lance Ultra TR-FRET), triple mutant L858R/T790M/C797S
EGFR L858R/T790M/C797S, sequence (P00533 25-1210 T790M/C797S/L858R): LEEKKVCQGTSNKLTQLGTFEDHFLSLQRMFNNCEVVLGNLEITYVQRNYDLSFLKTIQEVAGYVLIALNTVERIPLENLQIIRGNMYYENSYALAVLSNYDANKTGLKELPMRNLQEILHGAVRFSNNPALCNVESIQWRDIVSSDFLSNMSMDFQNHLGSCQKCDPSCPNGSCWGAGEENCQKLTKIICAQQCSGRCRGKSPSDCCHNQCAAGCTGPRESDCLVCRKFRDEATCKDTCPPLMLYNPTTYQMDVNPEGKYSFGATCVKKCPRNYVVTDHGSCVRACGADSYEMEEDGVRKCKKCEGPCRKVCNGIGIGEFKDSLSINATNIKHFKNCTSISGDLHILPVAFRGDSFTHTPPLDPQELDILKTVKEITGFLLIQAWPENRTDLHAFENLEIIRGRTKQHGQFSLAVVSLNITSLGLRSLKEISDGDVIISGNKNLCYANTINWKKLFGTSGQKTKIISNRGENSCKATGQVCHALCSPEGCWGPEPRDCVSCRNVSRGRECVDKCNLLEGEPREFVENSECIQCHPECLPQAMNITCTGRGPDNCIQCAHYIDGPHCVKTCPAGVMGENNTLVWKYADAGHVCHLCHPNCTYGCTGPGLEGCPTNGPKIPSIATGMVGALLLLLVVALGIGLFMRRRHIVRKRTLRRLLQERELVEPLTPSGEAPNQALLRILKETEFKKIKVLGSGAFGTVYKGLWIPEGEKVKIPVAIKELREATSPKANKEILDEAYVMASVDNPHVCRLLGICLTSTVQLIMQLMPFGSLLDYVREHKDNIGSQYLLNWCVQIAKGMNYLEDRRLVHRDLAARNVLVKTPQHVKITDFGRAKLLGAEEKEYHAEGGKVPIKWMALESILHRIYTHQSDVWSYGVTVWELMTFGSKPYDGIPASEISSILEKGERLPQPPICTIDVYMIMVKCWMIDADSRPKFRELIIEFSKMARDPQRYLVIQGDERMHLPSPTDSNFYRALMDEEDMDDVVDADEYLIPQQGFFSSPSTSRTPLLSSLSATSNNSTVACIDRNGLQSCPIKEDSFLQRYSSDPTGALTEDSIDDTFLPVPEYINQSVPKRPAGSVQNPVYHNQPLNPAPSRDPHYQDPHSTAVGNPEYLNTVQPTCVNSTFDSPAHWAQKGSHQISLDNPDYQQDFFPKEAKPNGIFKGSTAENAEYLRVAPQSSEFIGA
Procedure, shortened: as §1

[1] = ATP at Km, read-out: IC50 Del19/T790M/C797S (nM), Km ATP
[2] = IC50 Del19/T790M/C797S (nM), 100 μM ATP
[3] = ATP at Km, read-out: IC50 L858R/C797S (nM), Km ATP
[4] = IC50 L858R/C797S (nM), 100 μM ATP
[5] = ATP at Km, read-out: IC50 Del19/C797S (nM), Km ATP
[6] = IC50 Del19/C797S (nM), 100 μM ATP
[7] = ATP at Km, read-out: IC50 WT (nM), Km ATP
[8] = ATP at Km, read-out: IC50 L858R/T790M/C797S (nM), Km ATP
[9] = IC50 L858R/T790M/C797S (nM), 100 μM ATP

EGFR Del19/T790M/C797S, sequence (P00533 with tags, fused parts or gaps DEL746-750/T790M/C797S): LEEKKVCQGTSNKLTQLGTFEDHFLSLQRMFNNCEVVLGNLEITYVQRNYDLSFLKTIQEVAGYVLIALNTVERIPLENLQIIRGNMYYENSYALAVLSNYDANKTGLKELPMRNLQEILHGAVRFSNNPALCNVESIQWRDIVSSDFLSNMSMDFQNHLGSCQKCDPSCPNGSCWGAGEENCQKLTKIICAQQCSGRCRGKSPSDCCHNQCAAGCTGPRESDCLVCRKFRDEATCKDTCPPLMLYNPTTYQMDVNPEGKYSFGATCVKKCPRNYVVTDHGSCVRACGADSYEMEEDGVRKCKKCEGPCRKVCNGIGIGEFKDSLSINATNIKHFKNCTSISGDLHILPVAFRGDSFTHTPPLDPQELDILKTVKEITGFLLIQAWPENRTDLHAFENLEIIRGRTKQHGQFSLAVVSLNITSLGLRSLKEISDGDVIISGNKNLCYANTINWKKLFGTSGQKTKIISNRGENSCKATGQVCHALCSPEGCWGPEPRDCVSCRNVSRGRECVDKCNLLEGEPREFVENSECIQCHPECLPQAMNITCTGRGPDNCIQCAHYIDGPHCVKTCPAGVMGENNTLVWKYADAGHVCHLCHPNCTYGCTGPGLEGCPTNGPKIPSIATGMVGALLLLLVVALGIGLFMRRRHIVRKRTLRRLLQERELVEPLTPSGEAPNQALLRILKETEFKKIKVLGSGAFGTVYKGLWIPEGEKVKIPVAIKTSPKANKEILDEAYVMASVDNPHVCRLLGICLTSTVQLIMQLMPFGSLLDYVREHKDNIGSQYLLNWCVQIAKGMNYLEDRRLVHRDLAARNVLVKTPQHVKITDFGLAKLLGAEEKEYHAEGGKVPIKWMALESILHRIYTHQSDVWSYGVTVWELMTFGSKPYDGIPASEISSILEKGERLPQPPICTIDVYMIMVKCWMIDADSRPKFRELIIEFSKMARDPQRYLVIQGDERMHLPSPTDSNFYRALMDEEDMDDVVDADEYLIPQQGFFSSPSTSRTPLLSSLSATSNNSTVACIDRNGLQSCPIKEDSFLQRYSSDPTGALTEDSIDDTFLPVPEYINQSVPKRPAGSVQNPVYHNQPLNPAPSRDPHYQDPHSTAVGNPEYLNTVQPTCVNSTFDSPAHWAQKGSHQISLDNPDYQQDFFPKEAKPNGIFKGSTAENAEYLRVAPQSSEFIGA

Compound | IC50 (EGFR Del19/T790M/C797S; [1]) [nM] | IC50 (EGFR Del19/T790M/C797S; [2]) [nM] | IC50 (EGFR L858R/C797S; [3]) [nM] | IC50 (EGFR L858R/C797S; [4]) [nM] | IC50 (EGFR Del19/C797S; [5]) [nM] | IC50 (EGFR Del19/C797S; [6]) [nM] | IC50 (EGFR wildtype (WT); [7]) [nM] | IC50 (EGFR wildtype (WT); IC50 WT (nM), 100 μM ATP) [nM] | IC50 (EGFR L858R/T790M/C797S; [8]) [nM] | IC50 (EGFR L858R/T790M/C797S; [9]) [nM]
O=S(=O)(C1CC1)n1cc(-c2nccc(Nc3cc(N[C@H]4CC[C@@H](O)CC4)c(C#CC4(O)CCCC4)cn3)n2)cn1 [Example 176, (1s,4s)-4-((2-((2-(1-(Cyclopropylsulfonyl)-1H-pyrazol-4-yl)pyrimidin-4-yl)amino)-5-((1-hydroxycyclopentyl)ethynyl)pyridin-4-yl)amino)cyclohexan-1-ol] | 0.5 | 0.4 | 14.2 | 104 | 3 | 3.6 | 40.1 | > 10000 | 0.3 | 0.8
O=S(=O)(C1CC1)n1cc(-c2nccc(Nc3cc(N[C@H]4CC[C@@H](O)CC4)c(C#CC4CCOCC4)cn3)n2)cn1 [Example 178, (1s,4s)-4-((2-((2-(1-(Cyclopropylsulfonyl)-1H-pyrazol-4-yl)pyrimidin-4-yl)amino)-5-((tetrahydro-2H-pyran-4-yl)ethynyl)pyridin-4-yl)amino)cyclohexan-1-ol] | 0.3 | 0.3 | 3 | 27 | 1.1 | 2.3 | 9.5 | 8010 | 0.2 | 0.3
CN1CCC(C#Cc2cnc(Nc3ccnc(-c4cnn(S(=O)(=O)C5CC5)c4)n3)cc2NC2CCC(O)CC2)C1 (centres unmarked) [Example 181, (1s,4s)-4-((2-((2-(1-(Cyclopropylsulfonyl)-1H-pyrazol-4-yl)pyrimidin-4-yl)amino)-5-((1-methylpyrrolidin-3-yl)ethynyl)pyridin-4-yl)amino)cyclohexan-1-ol] | 0.1 | 0.1 | 0.6 | 6 | 0.7 | 0.6 | 6.1 | 2920 | 0.05 | 0.1
O=S(=O)(C1CC1)n1cc(-c2nccc(Nc3cc(N[C@H]4CC[C@@H](O)CC4)c(C#Cc4ccc(CN5CCOCC5)cn4)cn3)n2)cn1 [Example 184, (1s,4s)-4-((2-((2-(1-(Cyclopropylsulfonyl)-1H-pyrazol-4-yl)pyrimidin-4-yl)amino)-5-((5-(morpholinomethyl)pyridin-2-yl)ethynyl)pyridin-4-yl)amino)cyclohexan-1-ol] | 0.4 | 1.5 | 3.2 | 94.1 | 2.3 | 3.5 | 11.7 | > 10000 | 0.2 | 2.1
CC1(CO)CCN(c2cc(Nc3ccnc(-c4cnn(S(=O)(=O)C5CC5)c4)n3)ncc2C#Cc2ccc(CN3CCOCC3)cn2)CC1 [Example 185, (1-(2-((2-(1-(Cyclopropylsulfonyl)-1H-pyrazol-4-yl)pyrimidin-4-yl)amino)-5-((5-(morpholinomethyl)pyridin-2-yl)ethynyl)pyridin-4-yl)-4-methylpiperidin-4-yl)methanol] | 0.4 | 1.2 | 0.9 | 6.8 | 0.5 | 0.8 | 1.7 | > 10000 | 0.2 | 1.1
CC1(CO)CCN(c2cc(Nc3ccnc(-c4cnn(S(=O)(=O)C5CC5)c4)n3)ncc2C#Cc2ccc(CN3CCOCC3)nc2)CC1 [Example 187, (1-(2-((2-(1-(Cyclopropylsulfonyl)-1H-pyrazol-4-yl)pyrimidin-4-yl)amino)-5-((6-(morpholinomethyl)pyridin-3-yl)ethynyl)pyridin-4-yl)-4-methylpiperidin-4-yl)methanol] | 0.9 | 0.5 | 2 | 8.2 | 1.6 | 0.9 | 3.9 | 932 | 1.2 | 0.8
CC1(CO)CCN(c2cc(Nc3ccnc(-c4cnn(S(=O)(=O)C5CC5)c4)n3)ncc2C#Cc2csc(CN3CCOCC3)n2)CC1 [Example 189, (1-(2-((2-(1-(Cyclopropylsulfonyl)-1H-pyrazol-4-yl)pyrimidin-4-yl)amino)-5-((2-(morpholinomethyl)thiazol-4-yl)ethynyl)pyridin-4-yl)-4-methylpiperidin-4-yl)methanol] | 0.7 | 0.7 | 2.8 | 40.4 | 2.1 | 1.8 | 8.4 | > 10000 | 0.6 | 0.9
O=S(=O)(C1CC1)n1cc(-c2nccc(Nc3cc(N[C@H]4CC[C@@H](O)CC4)c(C#Cc4ccc(CN5CCOCC5)s4)cn3)n2)cn1 [Example 190, (1s,4s)-4-((2-((2-(1-(Cyclopropylsulfonyl)-1H-pyrazol-4-yl)pyrimidin-4-yl)amino)-5-((5-(morpholinomethyl)thiophen-2-yl)ethynyl)pyridin-4-yl)amino)cyclohexan-1-ol] | 1.8 | 5.1 | 8.9 | 71.5 | 3.3 | 4.6 | 19.7 | > 10000 | 1 | 6.7
CC1(CO)CCN(c2cc(Nc3ccnc(-c4cnn(S(=O)(=O)C5CC5)c4)n3)ncc2C#Cc2ccc(CN3CCOCC3)s2)CC1 [Example 191, (1-(2-((2-(1-(Cyclopropylsulfonyl)-1H-pyrazol-4-yl)pyrimidin-4-yl)amino)-5-((5-(morpholinomethyl)thiophen-2-yl)ethynyl)pyridin-4-yl)-4-methylpiperidin-4-yl)methanol] | 3 | 7 | 3.2 | 21.7 | 2.2 | 4.3 | 8.1 | 3580 | 1.5 | 9.8

The next lines start with the values.

IC50 (EGFR Del19/T790M/C797S; [1]) [nM] | IC50 (EGFR Del19/T790M/C797S; [2]) [nM] | IC50 (EGFR L858R/C797S; [3]) [nM] | IC50 (EGFR L858R/C797S; [4]) [nM] | IC50 (EGFR Del19/C797S; [5]) [nM] | IC50 (EGFR Del19/C797S; [6]) [nM] | IC50 (EGFR wildtype (WT); [7]) [nM] | IC50 (EGFR wildtype (WT); IC50 WT (nM), 100 μM ATP) [nM] | IC50 (EGFR L858R/T790M/C797S; [8]) [nM] | IC50 (EGFR L858R/T790M/C797S; [9]) [nM] | Compound
0.6 | 0.5 | 7.5 | 66.5 | 2 | 2.5 | 17.7 | 4870 | 0.4 | 0.7 | CC1(CO)CCN(c2cc(Nc3ccnc(-c4cnn(S(=O)(=O)C5CC5)c4)n3)ncc2C#CC2(O)CCCC2)CC1 [Example 177, 1-((6-((2-(1-(Cyclopropylsulfonyl)-1H-pyrazol-4-yl)pyrimidin-4-yl)amino)-4-(4-(hydroxymethyl)-4-methylpiperidin-1-yl)pyridin-3-yl)ethynyl)cyclopentan-1-ol]
0.4 | 0.5 | 1.5 | 13.4 | 0.8 | 1.9 | 6.2 | 3880 | 0.2 | 0.3 | CC1(CO)CCN(c2cc(Nc3ccnc(-c4cnn(S(=O)(=O)C5CC5)c4)n3)ncc2C#CC2CCOCC2)CC1 [Example 179, (1-(2-((2-(1-(Cyclopropylsulfonyl)-1H-pyrazol-4-yl)pyrimidin-4-yl)amino)-5-((tetrahydro-2H-pyran-4-yl)ethynyl)pyridin-4-yl)-4-methylpiperidin-4-yl)methanol]
0.2 | 0.1 | 0.4 | 2.7 | 0.5 | 0.3 | 2.8 | 1100 | 0.1 | 0.1 | CN1CCC(C#Cc2cnc(Nc3ccnc(-c4cnn(S(=O)(=O)C5CC5)c4)n3)cc2N2CCC(C)(CO)CC2)C1 (centres unmarked) [Example 180, (1-(2-((2-(1-(Cyclopropylsulfonyl)-1H-pyrazol-4-yl)pyrimidin-4-yl)amino)-5-((1-methylpyrrolidin-3-yl)ethynyl)pyridin-4-yl)-4-methylpiperidin-4-yl)methanol]
0.1 | 0.1 | 0.4 | 1.7 | 0.4 | 0.3 | 1.8 | 648 | 0.04 | 0.1 | CN1CCC(C#Cc2cnc(Nc3ccnc(-c4cnn(S(=O)(=O)C5CC5)c4)n3)cc2N2CCC(C)(CO)CC2)CC1 [Example 182, (1-(2-((2-(1-(Cyclopropylsulfonyl)-1H-pyrazol-4-yl)pyrimidin-4-yl)amino)-5-((1-methylpiperidin-4-yl)ethynyl)pyridin-4-yl)-4-methylpiperidin-4-yl)methanol]
2 | 1.9 | 26.9 | 400 | 11.7 | 43.9 | 146 | > 10000 | 0.9 | 4.1 | CC1(C#Cc2cnc(Nc3ccnc(-c4cnn(S(=O)(=O)C5CC5)c4)n3)cc2N2CCC(C)(CO)CC2)CCOCC1 [Example 183, (1-(2-((2-(1-(Cyclopropylsulfonyl)-1H-pyrazol-4-yl)pyrimidin-4-yl)amino)-5-((4-methyltetrahydro-2H-pyran-4-yl)ethynyl)pyridin-4-yl)-4-methylpiperidin-4-yl)methanol]
